What was measured:
Test in all cases: In Vitro Kinase Assay
[1] = target: Cyclin-dependent kinase 1 (Homo sapiens, UniProt P06493)
Excerpt: (§1) Kinase assay using cyclin-dependant kinases (CDK).

[2] = target: Cyclin-dependent kinase 2 (Homo sapiens, UniProt P24941)
Excerpt: as §1

[3] = target: Cyclin-dependent kinase 4 (Homo sapiens, UniProt P11802)
Excerpt: as §1

[4] = target: Cyclin-dependent kinase 7 (Homo sapiens, UniProt P50613)
Excerpt: as §1

[5] = target: Cyclin-dependent kinase 9 (Homo sapiens, UniProt P50750)
Excerpt: as §1

Sequence of Cyclin-dependent kinase 1 (P06493 whole entry): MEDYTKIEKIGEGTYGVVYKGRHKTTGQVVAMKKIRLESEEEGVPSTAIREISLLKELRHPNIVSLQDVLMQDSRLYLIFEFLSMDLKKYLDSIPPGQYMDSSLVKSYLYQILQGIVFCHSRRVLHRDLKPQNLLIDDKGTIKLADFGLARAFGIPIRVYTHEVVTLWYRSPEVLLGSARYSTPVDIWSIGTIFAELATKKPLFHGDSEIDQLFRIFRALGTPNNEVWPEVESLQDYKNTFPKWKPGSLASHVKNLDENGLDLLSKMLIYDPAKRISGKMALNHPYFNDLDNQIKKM
Sequence of Cyclin-dependent kinase 4 (P11802 whole entry): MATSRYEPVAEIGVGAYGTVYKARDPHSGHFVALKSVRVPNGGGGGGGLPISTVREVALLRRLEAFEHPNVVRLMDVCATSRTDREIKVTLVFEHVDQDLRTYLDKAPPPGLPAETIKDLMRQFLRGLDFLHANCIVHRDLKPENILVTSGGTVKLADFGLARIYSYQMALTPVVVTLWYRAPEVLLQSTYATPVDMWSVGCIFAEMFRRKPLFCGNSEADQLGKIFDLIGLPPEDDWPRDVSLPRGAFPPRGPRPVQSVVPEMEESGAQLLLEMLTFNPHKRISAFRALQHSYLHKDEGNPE
Sequence of Cyclin-dependent kinase 7 (P50613 whole entry): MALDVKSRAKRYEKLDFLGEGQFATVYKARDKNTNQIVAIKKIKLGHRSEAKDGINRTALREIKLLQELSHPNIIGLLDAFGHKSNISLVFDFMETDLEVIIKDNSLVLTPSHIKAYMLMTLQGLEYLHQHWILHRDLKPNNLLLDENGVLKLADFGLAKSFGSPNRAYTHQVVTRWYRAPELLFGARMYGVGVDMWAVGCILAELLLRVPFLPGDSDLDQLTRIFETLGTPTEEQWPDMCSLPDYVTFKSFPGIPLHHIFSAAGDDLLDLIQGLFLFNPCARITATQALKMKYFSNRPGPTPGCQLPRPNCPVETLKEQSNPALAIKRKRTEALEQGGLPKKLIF
Sequence of Cyclin-dependent kinase 9 (P50750 whole entry): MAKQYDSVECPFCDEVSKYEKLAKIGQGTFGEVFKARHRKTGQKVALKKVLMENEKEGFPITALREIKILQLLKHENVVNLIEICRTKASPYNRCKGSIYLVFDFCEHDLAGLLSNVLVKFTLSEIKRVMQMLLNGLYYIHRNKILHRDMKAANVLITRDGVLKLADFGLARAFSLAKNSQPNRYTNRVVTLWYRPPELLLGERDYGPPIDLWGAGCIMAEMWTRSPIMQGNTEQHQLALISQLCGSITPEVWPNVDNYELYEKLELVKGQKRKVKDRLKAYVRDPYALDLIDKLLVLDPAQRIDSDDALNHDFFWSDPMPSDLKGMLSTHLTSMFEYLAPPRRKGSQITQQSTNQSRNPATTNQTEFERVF

Structure (SMILES)	Ki [1] [nM]	Ki [2] [nM]	Ki [3] [nM]	Ki [4] [nM]	Ki [5] [nM]
CCNc1nc(C)c(-c2ccnc(Nc3cccc(S(N)(=O)=O)c3)n2)s1 [CDK Inhibitor, 2]	691	403	132	56	4.5
CNc1nc(C)c(-c2ccnc(Nc3cccc(S(N)(=O)=O)c3)n2)s1 [CDK Inhibitor, 3]	67	2.4	9.1	25	0.8
CNc1nc(C)c(-c2ccnc(Nc3cccc(S(=O)(=O)NC)c3)n2)s1 [CDK Inhibitor, 4]	334	33	20	107	4.3
CNS(=O)(=O)c1cccc(Nc2nccc(-c3sc(N)nc3C)n2)c1 [CDK Inhibitor, 5]	233	26	163	127	4.3
CNc1nc(C)c(-c2ccnc(Nc3cccc(S(C)(=O)=O)c3)n2)s1 [CDK Inhibitor, 6]	86	1.6	94	91	0.29
CCNc1nc(C)c(-c2ccnc(Nc3cccc(S(C)(=O)=O)c3)n2)s1 [CDK Inhibitor, 7]	> 500	7.6	139	47	0.96
CCNS(=O)(=O)c1cccc(Nc2nccc(-c3sc(N)nc3C)n2)c1 [CDK Inhibitor, 8]	660	47	391	193	5.9
CNc1nc(C)c(-c2ccnc(Nc3ccc(C)c(S(=O)(=O)N4CCOCC4)c3)n2)s1 [CDK Inhibitor, 9]	> 500	> 500	> 500	3470	6.7
Cc1ccc(Nc2nccc(-c3sc(N)nc3C)n2)cc1S(=O)(=O)N1CCOCC1 [CDK Inhibitor, 10]	> 500	> 500	> 500	304	8.5
COCCNS(=O)(=O)c1ccc(Nc2nccc(-c3sc(=O)n(C)c3C)n2)cc1 [CDK Inhibitor, 11]			> 500		
Cc1c(-c2ccnc(Nc3cccc(C#N)c3)n2)sc(=O)n1C [CDK Inhibitor, 12]		0.52	102		
Cc1ccc(Nc2nccc(-c3sc(=O)n(C)c3C)n2)cc1[N+](=O)[O-] [CDK Inhibitor, 13]	3	28	60	0.56	5.9
Cc1c(-c2ccnc(Nc3ccc(N4CCNCC4)cc3)n2)sc(=O)n1C [CDK Inhibitor, 14]	449	149	68	2.3	0.38

Reference: BindingDB's records for doi:10.1016/j.chembiol.2010.07.016 (Cyclacel, 2010)
